Laboratory results taken from patent US20250177481A1, “SCO-spondin-derived polypeptides for enhancing synaptic transmission” (AXOLTIS PHARMA, priority 2021, published 2025).
“And” between values parts separate entries of the source, which are not always exact repeats. Equal values may be shown once.

What was measured:
[1] = tested on: NMDA EPSCs in hippocampal CA1 pyramidal neurons; assay: patch-clamp phase 0: sequential application of NVP-AAM077 and Ifenprodil on NMDA EPSCs; assay type: cell-based, C57Bl6/J mice; conditions: 3 cells, data not shown
Protocol: Twelve (C57Bl6/J) male mice 4-5 weeks-old were obtained from Charles River, France and housed in an animal facility. Animal care was compliant with national and local Ethics committee recommendations. Sagittal hippocampal brain slices were obtained using standard brain slicing methods (approximately 6 slices per mouse) (Knobloch et al. 2007). Mice were anesthetized with isoflurane and then decapitated. […] Acute slices (350 μm thick) were prepared using a vibratome (VT 1000S; Leica Microsystems, Bannockburn, IL). Sections were incubated in standard aCSF at room temperature for at least 1 h before recordings. […] Recordings were acquired using Clampex 10 (Molecular Devices) and analyzed with Clampfit (Molecular Devices). […] A total of 23 neurons were recorded (10 per group (phases 1 and 2) and 3 in a control phase (phase 0) as follow. In each recording session, 10 EPSCs were induced in response to Schaffer collateral stimulations. Measurements of the amplitudes (average of 10 EPCS) were assessed. Phase 0 represented a validation phase aiming at confirming that GluN2A and GluN2B were the predominant NR2 subunits involved in the EPSCs evoked by Schaffer collateral stimulation. We expected the residual current at the end of phase 0 to be minimal.

[2] = biological target: T1, GluN2A subunit of NMDAR (isolated evoked NMDAR currents in CA1 hippocampal neurons) (Mus musculus, UniProt P35436); assay: patch-clamp phase 1: NMDAR EPSCs with GluN2B subunits blocked by Ifenprodil; assay type: cell-based, C57Bl6/J mice; conditions: Ifenprodil 3 μM alone; control = 100; mean of 10 cells
T1 construct: Sagittal hippocampal brain slices were obtained using standard brain slicing methods; from tissue; host or cells: acute hippocampal slices of C57Bl6/J mice, CA1 pyramidal neurons
T1 sequence (P35436 23-1464, other chains not shown): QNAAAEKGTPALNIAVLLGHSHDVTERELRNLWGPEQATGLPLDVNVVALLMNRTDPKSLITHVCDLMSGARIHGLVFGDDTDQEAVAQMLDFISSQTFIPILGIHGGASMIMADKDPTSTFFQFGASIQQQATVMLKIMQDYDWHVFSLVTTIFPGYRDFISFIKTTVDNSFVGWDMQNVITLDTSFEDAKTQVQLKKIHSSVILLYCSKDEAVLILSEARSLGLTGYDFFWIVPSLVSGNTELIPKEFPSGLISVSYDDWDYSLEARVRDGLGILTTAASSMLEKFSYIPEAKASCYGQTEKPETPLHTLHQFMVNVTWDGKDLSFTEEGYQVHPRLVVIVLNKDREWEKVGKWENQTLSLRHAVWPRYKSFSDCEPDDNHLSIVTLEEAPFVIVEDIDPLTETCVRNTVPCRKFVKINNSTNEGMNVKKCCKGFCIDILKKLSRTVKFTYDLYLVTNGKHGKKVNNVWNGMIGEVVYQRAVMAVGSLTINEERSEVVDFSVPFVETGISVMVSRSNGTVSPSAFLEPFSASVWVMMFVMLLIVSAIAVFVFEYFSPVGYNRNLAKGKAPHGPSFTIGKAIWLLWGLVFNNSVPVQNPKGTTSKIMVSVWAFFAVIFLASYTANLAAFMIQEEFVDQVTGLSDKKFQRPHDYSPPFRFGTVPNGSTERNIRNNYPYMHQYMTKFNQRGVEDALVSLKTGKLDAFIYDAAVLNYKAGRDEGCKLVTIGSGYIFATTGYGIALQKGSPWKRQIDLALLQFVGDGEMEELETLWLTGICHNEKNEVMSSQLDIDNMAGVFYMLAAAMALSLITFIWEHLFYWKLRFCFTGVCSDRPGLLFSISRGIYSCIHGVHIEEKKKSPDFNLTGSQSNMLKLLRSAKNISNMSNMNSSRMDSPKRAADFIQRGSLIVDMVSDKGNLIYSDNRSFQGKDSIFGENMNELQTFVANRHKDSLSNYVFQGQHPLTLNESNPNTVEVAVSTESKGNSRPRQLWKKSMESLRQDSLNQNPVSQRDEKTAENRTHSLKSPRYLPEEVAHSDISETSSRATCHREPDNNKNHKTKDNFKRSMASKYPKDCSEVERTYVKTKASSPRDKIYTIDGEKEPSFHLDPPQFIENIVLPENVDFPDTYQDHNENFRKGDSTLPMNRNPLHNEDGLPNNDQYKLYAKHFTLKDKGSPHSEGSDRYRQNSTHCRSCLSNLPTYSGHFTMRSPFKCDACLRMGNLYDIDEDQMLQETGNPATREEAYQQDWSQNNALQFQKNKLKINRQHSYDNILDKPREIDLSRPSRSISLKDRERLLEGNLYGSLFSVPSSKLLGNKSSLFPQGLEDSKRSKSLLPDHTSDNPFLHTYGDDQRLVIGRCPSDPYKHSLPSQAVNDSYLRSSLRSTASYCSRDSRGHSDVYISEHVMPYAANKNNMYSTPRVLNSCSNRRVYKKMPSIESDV
Source text: (§1) Selective antagonists of GluN2A and GluN2B subunits were also used.
(§2) Twelve (C57Bl6/J) male mice 4-5 weeks-old were obtained from Charles River, France and housed in an animal facility. Animal care was compliant with national and local Ethics committee recommendations. Sagittal hippocampal brain slices were obtained using standard brain slicing methods (approximately 6 slices per mouse) (Knobloch et al. 2007). Mice were anesthetized with isoflurane and then decapitated. […]
(§3) The signal was amplified with an Axopatch 200B amplifier (Molecular Devices, Union City, CA), digitized by a Digidata 1550 interface (Molecular Devices). Recordings were acquired using Clampex 10 (Molecular Devices) and analyzed with Clampfit (Molecular Devices). […]
(§4) A total of 12 mice was dedicated to the study. A total of 23 neurons were recorded (10 per group (phases 1 and 2) and 3 in a control phase (phase 0) as follow. In each recording session, 10 EPSCs were induced in response to Schaffer collateral stimulations. Measurements of the amplitudes (average of 10 EPCS) were assessed. Phase 0 represented a validation phase aiming at confirming that GluN2A and GluN2B were the predominant NR2 subunits involved in the EPSCs evoked by Schaffer collateral stimulation. We expected the residual current at the end of phase 0 to be minimal.

[3] = biological target: T2, GluN2B subunit of NMDAR (isolated evoked NMDAR currents in CA1 hippocampal neurons) (Mus musculus, UniProt Q01097); assay: patch-clamp phase 2: NMDAR EPSCs with GluN2A subunits blocked by NVP-AAM077; assay type: cell-based, C57Bl6/J mice; conditions: NVP-AAM077 0.4 μM alone; control = 100; mean of 10 cells
T2 construct: Sagittal hippocampal brain slices were obtained using standard brain slicing methods; from tissue; host or cells: acute hippocampal slices of C57Bl6/J mice, CA1 pyramidal neurons
T2 sequence (Q01097 27-1482, other chains not shown): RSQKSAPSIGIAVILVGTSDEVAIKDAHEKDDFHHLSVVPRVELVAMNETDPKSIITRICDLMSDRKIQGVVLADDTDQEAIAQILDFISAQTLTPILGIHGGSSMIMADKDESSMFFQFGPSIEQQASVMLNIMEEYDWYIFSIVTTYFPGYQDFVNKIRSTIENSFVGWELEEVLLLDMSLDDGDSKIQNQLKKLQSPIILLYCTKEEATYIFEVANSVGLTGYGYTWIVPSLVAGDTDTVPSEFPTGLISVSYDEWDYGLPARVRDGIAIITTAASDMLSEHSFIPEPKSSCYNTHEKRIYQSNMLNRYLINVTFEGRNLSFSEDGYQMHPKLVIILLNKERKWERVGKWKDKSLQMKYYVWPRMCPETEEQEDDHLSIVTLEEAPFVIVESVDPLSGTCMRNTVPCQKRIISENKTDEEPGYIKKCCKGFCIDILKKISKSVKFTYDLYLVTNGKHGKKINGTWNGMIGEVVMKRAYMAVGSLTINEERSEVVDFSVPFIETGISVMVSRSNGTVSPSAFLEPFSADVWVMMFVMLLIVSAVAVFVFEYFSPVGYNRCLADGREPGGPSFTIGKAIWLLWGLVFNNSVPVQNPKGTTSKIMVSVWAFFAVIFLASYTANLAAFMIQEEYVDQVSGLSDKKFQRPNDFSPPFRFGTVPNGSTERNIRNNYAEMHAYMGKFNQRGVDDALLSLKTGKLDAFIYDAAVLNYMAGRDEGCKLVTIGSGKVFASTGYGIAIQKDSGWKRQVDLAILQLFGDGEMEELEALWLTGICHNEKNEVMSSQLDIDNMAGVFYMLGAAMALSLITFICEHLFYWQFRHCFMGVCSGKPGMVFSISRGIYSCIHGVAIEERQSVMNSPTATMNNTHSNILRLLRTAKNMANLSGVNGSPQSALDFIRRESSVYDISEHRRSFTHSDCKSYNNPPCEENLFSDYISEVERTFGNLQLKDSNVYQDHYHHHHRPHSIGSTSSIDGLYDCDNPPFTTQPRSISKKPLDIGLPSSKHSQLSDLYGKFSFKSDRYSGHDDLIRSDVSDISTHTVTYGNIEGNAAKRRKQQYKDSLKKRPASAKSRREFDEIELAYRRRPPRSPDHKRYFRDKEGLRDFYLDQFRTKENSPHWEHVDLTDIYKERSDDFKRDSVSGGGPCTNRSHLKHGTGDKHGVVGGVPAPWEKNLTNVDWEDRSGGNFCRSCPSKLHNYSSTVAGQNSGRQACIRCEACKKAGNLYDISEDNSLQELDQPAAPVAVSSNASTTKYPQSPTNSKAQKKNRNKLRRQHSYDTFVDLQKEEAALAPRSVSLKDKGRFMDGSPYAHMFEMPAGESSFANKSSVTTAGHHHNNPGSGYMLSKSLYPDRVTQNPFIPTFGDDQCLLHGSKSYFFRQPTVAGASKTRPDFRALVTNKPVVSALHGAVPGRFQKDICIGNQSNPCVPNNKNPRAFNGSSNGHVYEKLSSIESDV
Source text: as §1, §2, §3, §4

[4] = tested on: subchronic PCP-induced cognitive deficits in mice; assay: T-maze continuous alternation task in subchronic PCP mice; assay type: in vivo, Swiss CD-1 mice; conditions: n=10
Source text: Phenycyclidine (PCP) is an antagonist of NMDA receptor, its administration in healthy humans produces schizophrenia-like symptoms, therefore PCP is often used to mimic schizophrenia in rodents. […] In addition, brain samples were collected shorlty after the T-Maze test to measure the levels of cerebral biomarkers involved in synaptic plasticity.
Sixty (60) male Swiss CD-1 mice were purchased from Janvier Labs (Le Genest-Saint-Isle, France) one week before the start of the study for acclimation. Mice were group-housed (6-8 mice per Eurostandard type Ill cage) and maintained in a room with controlled temperature (21-22° C.) under a reversed 12 h/12 h light-dark cycle (lights on: 5:[…]; lights off: 05:30 am) with food and water available ad libitum. The weight of mice ranged from 25.9 and 36.4 g. […]
Nicotine used as a positive control was administered at a dose of 0.4 mg/kg intraperitoneally 30 minutes prior to the T-maze trial
After administration of compounds at different timepoints all animals were tested for continuous alternation task in the T-Maze. The T-maze apparatus was made of gray Plexiglas with a main stem (55-cm long×10-cm wide×20-cm high) and two arms (30-cm long×10-cm wide×20-cm high) positioned at a 90-degree angle relative to the main stem. A start box (15-cm long×10-cm wide) was separated from the main stem by a guillotine door. Horizontal doors were also provided to close specific arms during the force choice alternation task. The experimental protocol consisted in one single session that started with 1 “forced-choice” trial, followed by 14 “free-choice” trials (Gerlai, 1998). In the first “forced-choice” trial, the mouse was confined 5 s in the start arm and then released while either the left or right goal arm was blocked by closing the sliding door. Then, it walked through the maze, eventually entered the open goal arm, and then returned to the start position. Immediately after the mouse came back to the start position, the left or right goal door was opened (i.e. the two goal doors were opened), and the mouse could choose freely between the left and right goal arms (first “free choice trial”). The mouse was considered as entered in the arm when it placed its four paws in the arm. The opposite goal door was then closed until the animal returned to the start arm. Then, a second “free choice trial” began by the opening of the closed goal door (i.e. the two goal doors were opened), leaving the choice to the mouse to enter either into the right or the left arm. The session was considered finished as soon as 14 free-choice trials had been performed in less than 10 min, and the mouse was removed from the maze. The time needed to reach these 14 “free-choices” was recorded.
The percent of spontaneous alternations was calculated as number of spontaneous alternations divided by the number of free-choice trials, an index of spatial short-term working memory. The apparatus was cleaned between each animal using alcohol (70%). Urine and feces were removed from the maze. During the trials, animal handling and the visibility of the operator were minimized as much as possible. Animals were tested in a random and blind manner.

[5] = tested on: scopolamine-induced spatial short-term working memory deficits in mice; assay: Y-maze spontaneous alternation in the scopolamine mouse model of amnesia; assay type: in vivo, Swiss mice; conditions: for spontaneous alternance in Y-maze: n=6; for effect on scopolamine-induced spatial short-term working memory impairments (Y-maze): data not shown
Protocol: Male Swiss mice, weighing 30-35 g, from JANVIER (Saint Berthevin, France), were housed in groups with access to food and water ad libitum, except during behavioral experiments. They were kept in a temperature and humidity-controlled animal facility on a 12 h/12 h light/dark cycle (lights off at 07:[…]). Mice were numbered by marking their tail with permanent markers. All animal procedures were conducted in strict adherence to the European Union directive of Sep. 22, 2010 (2010/63/UE). In each cage (n=6 per cage), treatment regimen was the same. Animals were tested in a random and blind manner.
Donepezil (DPZ) used as positive control was administered per os at a dose of 1 mg/kg once 1 h before the YM test.
Scopolamine was administered at a dose of 0.5 mg/kg by subcutaneous injection 30 minutes before the YM session.
After administration of compounds at different timepoints all animals were tested for spontaneous alternation performance in the YM, an index of spatial working memory. The YM was designed according to Itoh and collaborators (1993) and Hiramatsu and Inoue (1999) and is made of grey polyvinylchloride. Each arm is 40-cm long, 13-cm high, 3-cm wide at the bottom, 10-cm wide at the top, and converging at an equal angle. Each mouse was placed at the end of one arm and allowed to move freely through the maze during an 8-min session. The series of arm entries, including possible returns into the same arm, were checked visually. An alternation was defined as entries into all three arms on consecutive occasions. The number of maximum alternations is therefore the total number of arm entries minus two and the percentage of alternation was calculated as (actual alternations/maximum alternations)×100. Parameters included the percentage of alternation, called memory index, and total number of arm entries, called exploration index (Maurice et al., 1996, 1988; Meunier et al., 2006; Villard et al., 2009, 2011).
Animals showing an extreme behavior (alternation percentage <20% or >90% or number of arm entries <10) would have been discarded from the calculation. No animal was discarded accordingly.

Molecule: CC(C(O)c1ccc(O)cc1)N1CCC(Cc2ccccc2)CC1 (stereo not shown) [Ifenprodil]
- NMDA EPSCs amplitude ([1]; NVP-AAM077 0.4 μM + Ifenprodil 3 μM): significantly decreased
- Normalized amplitude of evoked isolated NMDA excitatory postsynaptic currents [2]: 78.74 % of control

Molecule: C[C@H](NC(c1cccc2[nH]c(=O)c(=O)[nH]c12)P(=O)(O)O)c1ccc(Br)cc1 (stereo partly shown) [NVP-AAM077]
- NMDA EPSCs amplitude ([1]; NVP-AAM077 0.4 μM): significantly decreased
- Normalized amplitude of evoked isolated NMDA excitatory postsynaptic currents [3]: 56.35 % of control

Molecule: CN1CCCC1c1cccnc1 (stereo not shown) [Nicotine, reference compound]
- Spontaneous alternations in T-maze ([4]; PCP + 0.4 mg/kg i.p. 30 min before trial (D14), PCP alone 30.71, control 66.43, 0.4 mg/kg): 62% and 62.14%

Molecule: c1ccc(C2(N3CCCCC3)CCCCC2)cc1 [PCP, phencyclidine, reference compound]
- Spontaneous alternations in T-maze ([4]; PCP 0.2 mg/kg s.c. twice daily D1-D11, vehicle-treated, saline control 66.43): 31% and 30.71%

Molecule: CN1[C@@H]2C[C@@H](OC(=O)[C@H](CO)c3ccccc3)C[C@H]1[C@@H]1O[C@@H]12 [Scopolamine, reference compound]
- spontaneous alternance in Y-maze ([5]; scopolamine 0.5 mg/kg s.c. 30 min before test, alone, control 70, mean): 45%

Molecule: W-S-G-W-S-S-C-S-R-S-C-G [NX210] (WSGWSSCSRSCG; reduced linear form)
- effect on scopolamine-induced spatial short-term working memory impairments (Y-maze) ([5]; 15 mg/kg i.p. once 48 h before the test): maintained but less pronounced
- effect on scopolamine-induced spatial short-term working memory impairments (Y-maze) ([5]; administered i.p. 2 h or 1 h before the test): No effect
- effect on scopolamine-induced spatial short-term working memory impairments (Y-maze) ([5]; dose lower than 10 mg/kg i.p.): No effect
- dose with maximum effect on scopolamine-induced memory impairments (Y-maze) ([5]; i.p. once 24 h before the test, bell-shaped dose-response curve): 15 mg/kg
- spontaneous alternance in Y-maze ([5]; scopolamine + 10 mg/kg i.p. 24 h before test, scopolamine alone 45, control 70, 10 mg/kg): 59%
- spontaneous alternance in Y-maze ([5]; scopolamine + 15 mg/kg i.p. 24 h before test, scopolamine alone 45, control 70, 15 mg/kg): 69%
